Legend:
[1] = Percent inhibition in hepatocyte culture system at 1/20 molar concentration of ethanol and lowered concentration of ethanol-derived AcH; assay type: functional, Rattus norvegicus
[2] = Percent inhibition in hepatocyte culture system in the presence of cyanamide at 1/20 molar concentration of ethanol and lowered concentration of ethanol-derived AcH; assay type: functional, Rattus norvegicus

C[C@H](NC(=O)[C@H](N)C(C)(C)S)C(=O)O.Cl
Inhibition [1]: 84%

CC(C)(NC(=O)[C@H](N)C(C)(C)S)C(=O)O.Cl
Inhibition [2]: 37%

CC(C)(S)[C@@H](N)C(=O)NCC(=O)O.Cl
Inhibition [1]: 79%
Inhibition [2]: 33%

— ChEMBL document CHEMBL1133097, “N-Terminal dipeptides of D(-)-penicillamine as sequestration agents for acetaldehyde” (2000)
